Assay results taken from US20220323406A1, “METHODS AND COMPOSITIONS FOR DIFFERENTIATING STEM CELLS” (Massachusetts Institute of Technology, priority 2019, published 2022).

Legend:
[1] = tested on: ENR+CD organoids (ISC to Paneth cell differentiation); assay: Primary screen: CCh-stimulated lysozyme secretion LYZ.S, 2.5-D 384-well ENR+CD organoid differentiation; assay type: cell-based, mouse; details: primary screen, FC relative to plate median
From the text: (§1) High-throughput screening.

[2] = tested on: ENR+CD organoids (ISC to Paneth cell differentiation); assay: Primary screen: basal (non-stimulated) lysozyme secretion LYZ.NS, 2.5-D 384-well ENR+CD organoid differentiation; assay type: cell-based, mouse; details: primary screen; for Dose.FC.LYZ.NS: FC relative to plate median; for Z.LYZ.NS: standard z score
From the text: as §1

ENR+CD organoids = assay: Primary screen: ATP (CellTiter-Glo 3D, CTG) cell number/viability, 2.5-D 384-well ENR+CD organoids; details: primary screen; for Dose.FC.CTG: FC relative to plate median; for Z.CTG: standard z score;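 as to all read-outs here: compounds given at plating and again on day 3 over a 6-day differentiation from ENR+CV stem-cell-enriched precursors, ATP measured on day 6, plate median as control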

Compound | Dose.FC.LYZ.S ([1]; dose 0.08 uM) | Dose.FC.LYZ.S ([1]; dose 0.40 uM) | Dose.FC.LYZ.S ([1]; dose 2.00 uM) | Dose.FC.LYZ.S ([1]; dose 10.00 uM) | Dose.FC.LYZ.NS ([2]; dose 0.08 uM) | Z.LYZ.NS ([2]; dose 0.08 uM) | Dose.FC.LYZ.NS ([2]; dose 0.40 uM) | Z.LYZ.NS ([2]; dose 0.40 uM) | Dose.FC.LYZ.NS ([2]; dose 2.00 uM) | Z.LYZ.NS ([2]; dose 2.00 uM) | Dose.FC.LYZ.NS ([2]; dose 10.00 uM) | Z.LYZ.NS ([2]; dose 10.00 uM) | Dose.FC.CTG (ENR+CD organoids; dose 0.08 uM) | Z.CTG (ENR+CD organoids; dose 0.08 uM) | Dose.FC.CTG (ENR+CD organoids; dose 0.40 uM) | Z.CTG (ENR+CD organoids; dose 0.40 uM) | Dose.FC.CTG (ENR+CD organoids; dose 2.00 uM) | Z.CTG (ENR+CD organoids; dose 2.00 uM) | Dose.FC.CTG (ENR+CD organoids; dose 10.00 uM) | Z.CTG (ENR+CD organoids; dose 10.00 uM)
Cc1ccc(C(=O)N(CCCN)[C@@H](c2oc3cc(Cl)ccc3c(=O)c2Cc2ccccc2)C(C)C)cc1 [SB743921] | −0.321 log2 fold change | −0.329 log2 fold change | −0.340 log2 fold change | −0.350 log2 fold change | −0.232 log2 fold change | −2.017 | −0.247 log2 fold change | −2.148 | −0.264 log2 fold change | −2.297 | −0.238 log2 fold change | −2.068 | −0.485 log2 fold change | −1.159 | −0.777 log2 fold change | −1.855 | −0.485 log2 fold change | −1.158 | −0.542 log2 fold change | −1.294
O=C(NNc1nc2cc(F)ccc2n2cccc12)c1cnccn1 [SC144] | 0.098 log2 fold change | 0.014 log2 fold change | −0.131 log2 fold change | −0.211 log2 fold change | 0.067 log2 fold change | 0.582 | −0.013 log2 fold change | −0.112 | −0.025 log2 fold change | −0.220 | −0.156 log2 fold change | −1.355 | 0.160 log2 fold change | 0.381 | 0.129 log2 fold change | 0.309 | −0.257 log2 fold change | −0.613 | −0.885 log2 fold change | −2.113
CC(C)N(CCCNC(=O)Nc1ccc(C(C)(C)C)cc1)C[C@H]1O[C@@H](n2cc(Br)c3c(N)ncnc32)[C@H](O)[C@@H]1O [SGC0946] | 0.145 log2 fold change | −0.098 log2 fold change | 0.220 log2 fold change | 0.065 log2 fold change | 0.090 log2 fold change | 0.787 | −0.027 log2 fold change | −0.236 | 0.200 log2 fold change | 1.738 | 0.059 log2 fold change | 0.516 | 0.052 log2 fold change |  | −0.122 log2 fold change |  | −0.082 log2 fold change |  | −0.142 log2 fold change | 
Cc1cc(Nc2ccc(NC(=O)c3ccc(Nc4ccnc5ccccc45)cc3)cc2)nc(N)n1 [SGI-1027] | 0.060 log2 fold change | 0.145 log2 fold change | 0.094 log2 fold change | 0.018 log2 fold change | 0.061 log2 fold change | 0.528 | 0.084 log2 fold change | 0.735 | 0.129 log2 fold change | 1.123 | −0.005 log2 fold change | −0.046 | 0.244 log2 fold change | 0.583 | 0.298 log2 fold change | 0.712 | 0.172 log2 fold change | 0.412 | 0.052 log2 fold change | 0.125
CN1CCC(CNc2ccc3ncc(-c4cccc(OC(F)(F)F)c4)n3n2)CC1 [SGI-1776free base] | 0.159 log2 fold change | 0.088 log2 fold change | 0.011 log2 fold change | −0.317 log2 fold change | 0.116 log2 fold change | 1.013 | 0.042 log2 fold change | 0.362 | 0.012 log2 fold change | 0.108 | −0.205 log2 fold change | −1.784 | 0.170 log2 fold change | 0.407 | 0.278 log2 fold change | 0.665 | 0.212 log2 fold change | 0.506 | −1.033 log2 fold change | −2.468
Oc1ccc(Nc2nc(-c3ccc(Cl)cc3)cs2)cc1 [SKI II] | 0.090 log2 fold change | 0.123 log2 fold change | 0.061 log2 fold change | −0.191 log2 fold change | 0.078 log2 fold change | 0.683 | 0.219 log2 fold change | 1.906 | 0.074 log2 fold change | 0.647 | −0.156 log2 fold change | −1.362 | 0.293 log2 fold change | 0.699 | 0.222 log2 fold change | 0.531 | 0.198 log2 fold change | 0.473 | −0.336 log2 fold change | −0.802
O=C1NC(=O)/C(=C/c2cccc(C(F)(F)F)c2)S1 [SMI-4a] | 0.036 log2 fold change | −0.063 log2 fold change | −0.042 log2 fold change | −0.134 log2 fold change | 0.022 log2 fold change | 0.188 | −0.060 log2 fold change | −0.524 | 0.032 log2 fold change | 0.283 | −0.074 log2 fold change | −0.643 | −0.153 log2 fold change | −0.366 | −0.317 log2 fold change | −0.758 | −0.332 log2 fold change | −0.793 | −0.327 log2 fold change | −0.781
CC(C)(C)c1cnc(CSc2cnc(NC(=O)C3CCNCC3)s2)o1 [SNS-032 (BMS-387032)] | 0.070 log2 fold change | −0.206 log2 fold change | −0.301 log2 fold change | −0.361 log2 fold change | 0.049 log2 fold change | 0.428 | −0.143 log2 fold change | −1.241 | −0.276 log2 fold change | −2.399 | −0.254 log2 fold change | −2.214 | −0.075 log2 fold change | −0.180 | −0.083 log2 fold change | −0.198 | −0.915 log2 fold change | −2.186 | −1.009 log2 fold change | −2.411
Oc1c2ccccc2c2c3c(cccc13)N=N2 [SP600125] | 0.188 log2 fold change | 0.092 log2 fold change | 0.090 log2 fold change | 0.084 log2 fold change | 0.135 log2 fold change | 1.174 | 0.027 log2 fold change | 0.232 | 0.152 log2 fold change | 1.321 | 0.022 log2 fold change | 0.187 | 0.197 log2 fold change |  | 0.145 log2 fold change |  | 0.103 log2 fold change |  | −0.020 log2 fold change | 
O=C(Nc1cc(C(F)(F)F)ccc1N1CCCCC1)c1ccncc1 [SRPIN340] | 0.112 log2 fold change | 0.098 log2 fold change | 0.100 log2 fold change | 0.078 log2 fold change | 0.115 log2 fold change | 1.004 | 0.040 log2 fold change | 0.348 | 0.097 log2 fold change | 0.846 | 0.022 log2 fold change | 0.192 | 0.421 log2 fold change | 1.005 | 0.445 log2 fold change | 1.063 | 0.453 log2 fold change | 1.083 | 0.467 log2 fold change | 1.115
O=C(Nc1ccccc1-c1cn2c(CN3CCNCC3)csc2n1)c1cnc2ccccc2n1 [SRT1720] | 0.190 log2 fold change | 0.099 log2 fold change | 0.051 log2 fold change | −0.193 log2 fold change | 0.172 log2 fold change | 1.495 | 0.112 log2 fold change | 0.972 | 0.070 log2 fold change | 0.613 | −0.104 log2 fold change | −0.906 | 0.529 log2 fold change | 1.264 | 0.394 log2 fold change | 0.940 | 0.339 log2 fold change | 0.810 | −1.016 log2 fold change | −2.427
